Results: patent US9351986B2, “Calicheamicin derivative-carrier conjugates” (priority 2002, dated 2016)
Changes are numbered by the printed parent chain. Read-outs that look alike come from different tables or passages of the source.

How the values were obtained:
Raji = experiment: In vitro growth inhibition of Raji B-cell lymphoma line; format: cell-based; details: for IC50: read-out: IC50 of calicheamicin
Text: (§1) The effect of CMC-544 made by using CMA-676 and CMC-544 processes on the in vitro growth of CD22^+ B-Cell lymphoma cell lines, RL, Daudi, Raji and Ramos, were compared. An isotype-matched calicheamicin conjugate targeted at human CD33 (CMA-676) was used to reflect antigen-non-specific effects of the conjugate. […] CD22-mediated delivery of calicheamicin to the CD22^+ cells was at least 10 times more efficient in killing the target cells than the unconjugated drug itself. […] It is apparent from Table 4 that conjugate made by the CMC-544 conjugation process can generate equivalent cytotoxic effect at lower antibody concentrations than conjugate made by the CMA-676 conjugation process.

RL = experiment: In vitro growth inhibition of RL B-cell lymphoma line; format: cell-based; details: for IC50: read-out: IC50 of calicheamicin
Text: as §1

Ramos cells [1] = experiment: Disseminated RAMOS B lymphoma in SCID mice, established model; format: in vivo
Description: (§2) Male SCID mice (CB17 SCID), 20-25 g, were injected with […] through the tail vein (0.2 ml). […] For the day 3 treatment schedule, mice were dosed on days 3, 7, and 11. For the day 9 treatment schedule, mice were dosed on days 9, 13 and 17. […] Mice were monitored daily for the presence of hind limb paralysis at which time they were killed. Seven to 10 mice per treatment group were used. The group average survival time (±SD), median, minimum, and maximum survival times were all calculated. The difference in survival distribution between groups was determined by using a nonparametric Log-rank test with significance reported at the 0.05 level. The survival curves were constructed using the Kaplan-Meier method.
The initial study examined the effect of two different dosing schedules on survival times of the SCID mice with the disseminated lymphoma. The first study looked at initiating drug dosing 3 days after the tumor cells were injected intravenously (developing model), while the second study delayed drug dosing until 9 days post tumor cell injection (established model). […]

Ramos cells [2] = experiment: Disseminated RAMOS B lymphoma in SCID mice, developing model; format: in vivo
Description: as §2
The initial study examined the effect of two different dosing schedules on survival times of the SCID mice with the disseminated lymphoma. The first study looked at initiating drug dosing 3 days after the tumor cells were injected intravenously (developing model), while the second study delayed drug dosing until 9 days post tumor cell injection (established model).

Daudi = experiment: In vitro growth inhibition of Daudi B-cell lymphoma line; format: cell-based; details: Daudi #1; for IC50: read-out: IC50 of calicheamicin
Text: as §1

large RAMOS lymphoma = experiment: Large established RAMOS lymphoma xenografts; format: in vivo, nude mice; details: 160 μg/kg ip, days 1, 5 and 9
Description: The ability of CMC-544 made by the new procedure to inhibit growth of large established B-cell lymphoma xenografts using both the RAMOS and RL lymphoma models was also investigated. The tumors were allowed to grow and staged to 1.5 or 2 g of tumor mass after which CMC-544 or an isotype-matched negative control conjugate (CMA-676) were administered intraperitoneally at the dose of 160 μg/kg of conjugated calicheamicin keeping the original schedule of dosing on days 1, 5 and 9.
The same schedule of dosing was shown earlier to cause long lasting regression of small staged tumors (see Table 6).

CD22-mFc = experiment: BIACORE affinity of chimeric 5/44 and its variants; format: binding; details: CDR-H2 mutants of chimeric 5/44
Description: The activities of the chimeric genes were evaluated following transient transfection into CHO cells and determination of affinity constants by BIACORE™ analysis.
The affinities of chimeric 5/44 or its variants, which have had their glycosylation site or their reactive lysine removed, were investigated using BIA technology for binding to CD22-mFc constructs. All binding measurements were performed in the BIACORE™ 2000 instrument (Pharmacia Biosensor AB, Uppsala, Sweden). The assay was performed by capture of CD22mFc via the immobilized anti-mouse Fc. The antibody was in the soluble phase. Samples, standard, and controls (50 μl) were injected over immobilized anti-mouse Fc followed by antibody in the soluble phase. After each cycle, the surface was regenerated with 50 μl of 40 mM HCl at 30 μl/min. The kinetic analysis was performed using the BIAevaluation 3.1 software (Pharmacia).

Ramos = experiment: In vitro growth inhibition of Ramos B-cell lymphoma line; format: cell-based, human; details: for IC50: read-out: IC50 of calicheamicin
Text: as §1

RL NHL xenografts = RL NHL xenografts staged to 300-400 mg in nude mice; format: in vivo; details: 160 μg/kg intraperitoneally
Description: Similar studies were carried out using the RL lymphoma model. […] CMC-544 in a dose-dependent manner caused tumors to regress over a 3-week time frame. The minimally effective dose of CMC-544 in the RL lymphoma model was established from statistical analyses of these studies to be 20 μg/kg based on calicheamicin content. There were no deaths in any of these three studies.
The observed anti-tumor efficacy was dose-dependent as expected and there was no difference in the efficacies of either of the two CMC-544 preparations. […] However, it should be emphasized that for each dose of conjugated calicheamicin, the quantity of antibody protein administered in the form of a conjugate was four times higher for CMC-544 made by the CMA-676 process versus that made by the CMC-544 process. Since the calicheamicin content of the targeted conjugate is primarily responsible for causing the anti-tumor effect, it is possible to deliver the required quantity of calicheamicin via the conjugate made by the new procedure using much smaller quantities of the targeting antibody. The increased loading of the conjugate made by the CMC-544 process is, in effect, due to the lack of significant amounts of the low conjugated fraction (LCF).

CD22mFc = experiment: BIACORE biosensor binding analysis of CMC-544 and G5/44; details: Table 3
Description: Biosensor analyses were carried out using a BIACORE™ 2000 (BIAcore AB, Uppsala, Sweden). CD22mFc was covalently immobilized on the N-hydroxysuccinimide-activated carboxymethyl dextran-coated biosensor chip (CM5) using a standard amine-coupling chemistry at a protein density of approximately 2000 resonance units. Samples of CMC-544 or G5/44 were diluted in the HBS buffer (10 mM HEPES, pH 7.4, containing 150 mM NaCl, 3 mM EDTA and 0.005% polysorbate 20 (v/v)) and injected in the concentration range of 1 to 100 nM over the CD22mFc-coated biosensor chip surface at a flow rate of 30 μl/min for 3 min to allow binding. After the binding phase, dissociation of the bound antibody was monitored by washing the chip with the HBS buffer over a 15 minute period. The antigenic surface was regenerated by washing the Biosensor chip with 15 μl of the regeneration buffer (10 mM NaOH and 200 mM NaCl) for 30 seconds, followed by a stabilization time of 2 minutes before the next cycle. Kinetic constants were calculated by nonlinear least square regression analysis using a 1:1 Langmuir binding curve fitting model and BIAevaluation program (version 3.0, BIAcore). The antigen binding of CMC-544 was evaluated by surface plasmon resonance analysis using CD22mFc covalently immobilized on a biosensor chip.

[3] = test system: CD22− CD33+ HL-60 leukemia cells; experiment: Flow cytometry binding to HL-60 leukemia cells; details: data not shown
Text: Purified human polyclonal IgG1 and IgG4 were also used as negative controls.

RAMOS B-cell lymphoma = RAMOS B-cell lymphoma xenograft growth; format: in vivo; details: 10 mg/kg intraperitoneal, subcutaneous xenografts
Text: In Vivo Cytotoxicity. CMC-544 made by the CMC-544 process was further evaluated in B-cell lymphoma xenografts. In these studies, two B-cell lymphoma tumors, RAMOS and RL, were used. RL lymphoma is a non-Burkitt's NHL-derived cell line whereas RAMOS was originally derived from a Burkitt's lymphoma.

cell surface CD22 = molecular target: T1, cell surface CD22 (Homo sapiens, UniProt P20273); experiment: Competition assay against mouse 5/44 antibody for binding to Ramos cells; details: grafted variants expressed in CHO cells
T1 construct: host or cells: Ramos (Burkitt's lymphoma)
Text: The vectors encoding grafted variants were co-transfected into CHO cells in a variety of combinations, together with the original chimeric antibody chains. Binding activity was compared in a competition assay, competing the binding of the original mouse 5/44 antibody for binding to Ramos cells (obtained from ATCC, a Burkitt's lymphoma lymphoblast human cell line expressing surface CD22). This assay was considered the best way to compare the grafts in their ability to bind to cell surface CD22.

[4] = Table 8, conjugates 160 μg/kg, rituximab 20 mg/kg ip Q4Dx3 from day 9
[5] = Table 8, conjugates 160 μg/kg, rituximab 20 mg/kg ip Q4Dx3 from day 3

CMA-676: isotype-matched control conjugate of hP67.6 (IgG4, anti-CD33) with AcBut linked calicheamicin [reference compound]
IC50 of antibody (Raji; Raji #1): 80.00 µg/mL | IC50 (Raji; Raji #1): 2.8 nM | IC50 of antibody (Raji; Raji #2): 117.14 µg/mL | IC50 (Raji; Raji #2): 4.1 nM | IC50 of antibody (RL; RL #1): 17.14 µg/mL | IC50 (RL; RL #1): 0.6 nM | IC50 of antibody (RL; RL #2): 11.43 µg/mL | IC50 (RL; RL #2): 0.4 nM | effect on survival times (Ramos cells [1]; 160 μg/kg ip Q4Dx3): no significant effect on survival times | Average Survival Time (Ramos cells [1]; [4]): 33.7 days | Maximum Survival Time (Ramos cells [1]; [4]): 42.0 days | Median Survival Time (Ramos cells [1]; [4]): 31.0 days | Minimum Survival Time (Ramos cells [1]; [4]): 30.0 days | effect on survival time (Ramos cells [2]; 160 μg/kg ip Q4Dx3, p>0.05): did not increase survival time significantly | Average Survival Time (Ramos cells [2]; [5]): 32.9 days | Maximum Survival Time (Ramos cells [2]; [5]): 36.0 days | Median Survival Time (Ramos cells [2]; [5]): 34.0 days | Minimum Survival Time (Ramos cells [2]; [5]): 28.0 days | IC50 of antibody (Daudi): 53.89 µg/mL | IC50 (Daudi): 1.89 nM | effect on tumor growth (large RAMOS lymphoma): no effect on the tumor growth | mice sacrificed before day 15 because of tumor burden (large RAMOS lymphoma): Four out of five

N55Q: chimeric 5/44 with CDR-H2 mutation N55Q removing the glycosylation site
effect of the mutation on affinity (CD22-mFc): no effect on affinity

CCN(C(C)=O)[C@H]1CO[C@@H](O[C@H]2[C@H](O[C@H]3C#C/C=C\C#C[C@]4(O)CC(=O)C(NC(=O)OC)=C3/C4=C\CSSC(C)(C)CC(=O)NN)O[C@H](C)[C@@H](NO[C@H]3C[C@H](O)[C@H](SC(=O)c4c(C)c(I)c(O[C@@H]5O[C@@H](C)[C@H](O)[C@@H](OC)[C@H]5O)c(OC)c4OC)[C@@H](C)O3)[C@@H]2O)C[C@@H]1OC [N-ACETYL GAMMA CALICHEAMICIN DMH, N-Ac gamma calicheamicin DMH, reference compound]
IC50 (Ramos; Ramos #1): 0.7 nM | IC50 (Ramos; Ramos #2): 1 nM | IC50 (Raji; Raji #1): 0.46 nM | IC50 (Raji; Raji #2): 0.49 nM | IC50 (RL; RL #1): 0.226 nM | IC50 (RL; RL #2): 0.27 nM | anti-tumor activity of unconjugated drug (RL NHL xenografts): inactive | IC50 (Daudi): 0.26 nM

G5/44: CDR-grafted humanized antibody directed against cell surface antigen CD22, IgG4 isotype
IC50 of antibody (Ramos; Ramos #1): >100 µg/mL | IC50 of antibody (Ramos; Ramos #2): >100 µg/mL | IC50 of antibody (Raji; Raji #1): >100 µg/mL | IC50 of antibody (Raji; Raji #2): >100 µg/mL | IC50 of antibody (RL; RL #1): >100 µg/mL | IC50 of antibody (RL; RL #2): >100 µg/mL | KA (CD22mFc): 7.9e+09 M⁻¹ | Ka (CD22mFc): 220000 M⁻¹ s⁻¹ | Kd (CD22mFc): 2.8e-05 s⁻¹ | IC50 of antibody (Daudi): >100 µg/mL | binding to HL-60 leukemia cells [3]: neither CMC-544 nor G5/44 demonstrated any binding | effect of unconjugated antibody on tumor growth (RAMOS B-cell lymphoma): no effect on tumor growth

CMC-676 PROCESS CMC-544 LOADING 35 μg/mg: CMC-544 made by the CMA-676 conjugation process
IC50 (Raji; Raji #2): 0.52 nM | IC50 (RL; RL #1): 0.03 nM | IC50 (RL; RL #2): 0.04 nM | IC50 (Daudi): 0.08 nM

K60R: chimeric 5/44 with CDR-H2 mutation K60R removing the reactive lysine
effect of the mutation on affinity (CD22-mFc): neutral effect on affinity

CMC-544 (21 μg/mg) (CMA-676 procedure)
KA (CD22mFc): 8.1e+09 M⁻¹ | Ka (CD22mFc): 490000 M⁻¹ s⁻¹ | Kd (CD22mFc): 6.1e-05 s⁻¹

CMC-544 PROCESS CMC-544 LOADING 65 μg/mg: CMC-544 made by the CMC-544 conjugation process
IC50 (Ramos; Ramos #2): 0.26 nM | IC50 (Raji; Raji #1): 0.5 nM | IC50 (Raji; Raji #2): 0.56 nM | IC50 (RL; RL #1): 0.006 nM | IC50 (RL; RL #2): 0.012 nM | IC50 (Daudi): 0.021 nM

CMC-544 (87 μg/mg) (CMA-544 procedure)
KA (CD22mFc): 6.6e+09 M⁻¹ | Ka (CD22mFc): 460000 M⁻¹ s⁻¹ | Kd (CD22mFc): 6.9e-05 s⁻¹

B1: gH6: CDR-grafted 5/44 heavy chain graft gH6 (SEQ ID NO: 26) (antibody, V domains shown)
VH: EVQLVQSGAEVKKPGASVKVSCKASGYRFTNYWIHWVRQAPGQGLEWIGGINPGNNYATYRRKFQGRATLTADTSTSTVYMELSSLRSEDTAVYYCTREGYGNYGAWFAYWGQGTLVTVSS
modifications: gH6
binding activity in competition with mouse 5/44 (cell surface CD22): did not appear to have affected binding

B2: gH7: CDR-grafted 5/44 heavy chain graft gH7 (SEQ ID NO: 27) (antibody, V domains shown)
VH: B1 VH with A68V, L70M
modifications: gH7
binding activity in competition with mouse 5/44 (cell surface CD22): did not appear to have affected binding
